Experimental data: patent US12023385B2, “Tunable endogenous protein degradation with heterobifunctional compounds” (DANA-FARBER CANCER INSTITUTE, INC., priority 2017, dated 2024)
“Also recorded” adds a separate entry of the source.

Key:
[1] = target: T1, FKBP* fused to Nluc (Homo sapiens, UniProt P62942, F37V); assay: Nluc/Fluc luciferase ratio assay of FKBP* degradation in 293FT cells; type: cell-based; conditions: wild type or CRBN−/− 293FT cells, indicated concentrations, 4 hours
T1 construct: Nluc (nano luciferase) fusion partner; expressed in transfected cells; host or cells: 293FT cells (wild type or CRBN-/-)
T1 sequence (P62942 2-108 F37V): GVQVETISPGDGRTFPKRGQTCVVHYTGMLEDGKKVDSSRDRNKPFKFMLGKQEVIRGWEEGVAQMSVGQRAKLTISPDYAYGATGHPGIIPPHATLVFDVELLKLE
T1 sequence (Q96SW2 whole entry partner, the tested form may be a part): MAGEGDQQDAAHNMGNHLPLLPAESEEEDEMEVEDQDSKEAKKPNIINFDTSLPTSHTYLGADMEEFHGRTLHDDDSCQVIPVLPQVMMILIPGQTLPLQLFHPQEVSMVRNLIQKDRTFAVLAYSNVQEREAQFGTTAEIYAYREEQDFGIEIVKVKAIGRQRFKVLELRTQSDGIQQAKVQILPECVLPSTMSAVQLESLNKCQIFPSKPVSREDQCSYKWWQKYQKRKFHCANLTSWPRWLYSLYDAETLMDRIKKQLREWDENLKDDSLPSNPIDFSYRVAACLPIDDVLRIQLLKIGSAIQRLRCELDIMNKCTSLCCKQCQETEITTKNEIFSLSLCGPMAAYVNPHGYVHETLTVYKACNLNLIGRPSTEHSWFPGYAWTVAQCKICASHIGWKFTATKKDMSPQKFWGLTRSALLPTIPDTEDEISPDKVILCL
T1 sequence (Q16531 whole entry partner, the tested form may be a part): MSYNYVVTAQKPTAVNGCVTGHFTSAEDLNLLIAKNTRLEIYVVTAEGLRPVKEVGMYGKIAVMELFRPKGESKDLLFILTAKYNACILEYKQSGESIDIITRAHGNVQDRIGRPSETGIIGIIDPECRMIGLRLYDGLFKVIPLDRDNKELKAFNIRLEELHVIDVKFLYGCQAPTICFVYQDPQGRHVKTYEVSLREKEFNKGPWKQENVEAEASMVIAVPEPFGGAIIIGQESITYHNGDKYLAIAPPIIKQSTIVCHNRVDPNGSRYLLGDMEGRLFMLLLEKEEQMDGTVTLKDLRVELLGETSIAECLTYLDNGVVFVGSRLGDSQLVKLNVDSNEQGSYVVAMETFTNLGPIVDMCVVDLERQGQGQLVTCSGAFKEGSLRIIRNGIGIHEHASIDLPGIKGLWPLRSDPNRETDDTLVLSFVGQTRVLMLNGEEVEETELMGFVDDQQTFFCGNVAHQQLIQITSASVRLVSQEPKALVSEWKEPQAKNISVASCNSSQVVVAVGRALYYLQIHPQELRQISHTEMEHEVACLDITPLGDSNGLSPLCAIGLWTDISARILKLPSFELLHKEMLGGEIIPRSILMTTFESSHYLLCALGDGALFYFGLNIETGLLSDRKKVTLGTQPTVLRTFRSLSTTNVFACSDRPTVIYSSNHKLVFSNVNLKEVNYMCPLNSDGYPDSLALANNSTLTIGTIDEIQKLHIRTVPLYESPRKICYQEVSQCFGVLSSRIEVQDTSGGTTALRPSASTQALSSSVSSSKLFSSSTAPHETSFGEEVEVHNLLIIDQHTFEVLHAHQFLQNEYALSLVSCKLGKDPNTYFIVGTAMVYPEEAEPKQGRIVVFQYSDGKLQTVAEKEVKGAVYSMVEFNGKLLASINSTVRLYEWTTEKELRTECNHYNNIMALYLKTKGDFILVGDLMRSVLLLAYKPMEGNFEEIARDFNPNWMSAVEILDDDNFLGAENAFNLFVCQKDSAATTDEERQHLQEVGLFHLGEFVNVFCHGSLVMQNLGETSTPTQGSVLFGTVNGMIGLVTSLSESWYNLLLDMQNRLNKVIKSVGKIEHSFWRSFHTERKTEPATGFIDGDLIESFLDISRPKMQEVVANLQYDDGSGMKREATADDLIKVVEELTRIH
Protocol: In an effort to identify potent and selective dFKPB heterobifunctional compounds, high throughput measurements of targeted FKBP* degradation were measured by surrogate levels of luciferase. Here, FKBP* is exogenously expressed as a multicistronic transcript with two types of luciferase: nano luciferase (NLuc) and firefly luciferase (FLuc) that allow for cell normalized quantification of FKBP* protein levels. Degradation of FKBP* is measured as a signal ration (Nluc/Fluc) in wild type (FIG. 4A) or CRBN −/− (FIG. 4B) 293FT cells treated with indicated concentrations of dFKBPs for 4 hours.

[2] = system: NIH3T3 cells expressing dTAG-KRASG12V; assay: Propidium iodide cell cycle analysis of NIH3T3 cells expressing dTAG-KRASG12V; type: cell-based; conditions: 48 hours
Protocol: NIH3T3 cells were engineered to express dTAG-KRASG12V. NIH3T3 cells expressing dTAG-KRASG12V were treated with dFKBP7 and dFKBP13 for 48 hours to induce targeted dTAG-KRASG12V degradation. Fixed cells were stained with propidium iodide and cell cycle analysis was performed.

[3] = system: FKBP*-KRASG12V; assay: Immunoblot of FKBP*-KRASG12V (dTAG-KRAS) degradation in NIH3T3 cells; type: cell-based
Protocol: (§1) Cells were treated with 500 nM dFKBP7 for the indicated time. Cells were harvested and immunoblotted to measure degradation of FKBP*-KRAS and downstream surrogates of KRAS signaling (e.g. pMEK and pAKT).
(§2) Western blotting of NIH3T3 cells expressing dTAG-KRASG12V were treated with 1 μM of the indicated dFKBP heterobifunctional compounds for 24 hours. Cells were harvested and immunoblotted to measure degradation of FKBP*-KRAS and downstream surrogates of KRAS signaling (e.g. pMEK and pAKT).
(§3) Western blotting of NIH3T3 cells expressing FKBP* fused to the N-terminus of KRAS treated with the indicated concentrations of dFKBP13 for 24 hours. Cells were harvested and immunoblotted to measure degradation of FKBP*-KRAS and downstream surrogates of KRAS signaling (e.g. pMEK and pAKT).
(§4) To evaluate the kinetic control of targeted degradation of dTAG-KRAS, dFKBP13 was administered by increased duration. Western blotting of NIH3T3 cells expressing FKBP* fused to the N-terminus of KRAS treated with 1 μM dFKBP13 for the indicated time. Cells were harvested and immunoblotted to measure degradation of FKBP*-KRAS and downstream surrogates of KRAS signaling (e.g. pMEK and pAKT).
NIH3T3 cells (CRBN-WT) were engineered to express dTAG-KRASG12V. […]

[4] = target: T2, FKBP* (Homo sapiens, UniProt P62942, F37V); assay: Immunoblot of FKBP* degradation in 293FT cells (CRBN-WT or CRBN−/−); type: cell-based; conditions: 4 hours
T2 construct: HA; expressed in transfected cells; host or cells: 293FT cells (CRBN-WT or CRBN-/-)
T2 sequence (P62942 whole entry F37V): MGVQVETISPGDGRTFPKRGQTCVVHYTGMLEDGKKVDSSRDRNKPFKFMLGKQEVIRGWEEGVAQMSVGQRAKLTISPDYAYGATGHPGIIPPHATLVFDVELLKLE
Protocol: (§5) The dTAG is predicated on the selectivity of FKBP* specific ligands over endogenous, wild type FKBP. In 293T cells expressing wild type FKBP12 or FKBP*, dFKBP7 induces targeted degradation only in FKBP* expressing cells. An immunoblot of cells treated with heterobifunctional compounds described in the present invention was performed. 293FT cells (CRBN-WT or CRBN−/−) expressing either HA-tagged FKBP12WT or FKBP* were treated with indicated concentrations of dFKBP7 for 4 hours.
In 293T cells expressing wild type FKBP12 or FKBP*, treatment with dFKBP7 and dFKBP13 induces targeted degradation only in FKBP* expressing cells. Isogenic 293FT cells (CRBN-WT or CRBN−/−) were engineered to expressed either FKBP12WT or FKBP*. Cells were treated with 100 nM of either dFKBP7 or dFKBP13 for 4 hours before lysates were prepared for western immunoblot analysis.
In an effort to define the optimal concentration of dFKB13 heterobifunctional compound to induce degradation of FKBP*, degradation was measured upon treatment with increasing concentrations of dFKBP13. Isogenic 293FT cells (CRBN-WT or CRBN−/−) were engineered to expressed HA-tagged FKBP*. Cells were treated with the indicated dose of dFKBP13 for 4 hours before lysates were prepared for western immunoblot analysis.
To evaluate the kinetic control of targeted degradation FKBP*, dFKBP13 was administered by increased duration. […]

[5] = system: indicated proteins fused to mutant FKBP* with an HA tag; assay: Immunoblot of proteins fused to dTAG (FKBP*) in MV4;11 leukemia cells; conditions: indicated concentrations, 16 hours, western blot
From the text: To test the general utility of the dTAG technology across several protein types, the indicated proteins fused to the dTAG in MV4;11 leukemia cells were expressed.

[6] = system: KRAS signaling (pMEK and pAKT); assay: Immunoblot of downstream surrogates of KRAS signaling in NIH3T3 cells expressing dTAG-KRAS; type: cell-based
Protocol: as §1
as §2, with “In an effort to identify the best performing dFKBP molecule, dTAG-KRAS degradation was profiled across a series of dFKBP molecules. Western” for “Western”
as §3, §4
The dFKBP13 heterobifunctional compound potently degrades dTAG-KRAS mutant alleles. […]

[7] = target: T3, FKBP12WT (Homo sapiens, UniProt P62942); assay: Immunoblot of wild type FKBP12 in 293FT cells (selectivity control); type: cell-based; conditions: 4 hours
T3 construct: HA; expressed in transfected cells; host or cells: 293FT cells (CRBN-WT or CRBN-/-)
T3 sequence (P62942 whole entry): as the sequence (P62942 whole entry F37V) above, with V37F counted along it
Protocol: as §5, with “In 293T cells expressing wild type FKBP12 or FKBP*, dFKBP7 induces targeted degradation only in FKBP* expressing cells.” left out
Isogenic 293FT cells (CRBN-WT or CRBN−/−) were engineered to expressed either FKBP12WT or FKBP*. Cells were treated with 100 nM of either dFKBP7 or dFKBP13 for 4 hours before lysates were prepared for western immunoblot analysis.

[8] = 293FT CRBN-WT or CRBN−/−, indicated concentrations
[9] = isogenic 293FT CRBN-WT or CRBN−/−, 100 nM
[10] = NIH3T3 dTAG-KRASG12V, 1 μM, 24 hours

Row | SMILES | degradation of FKBP* as signal ratio (Nluc/Fluc) [1] | cell cycle profile (S-phase entry) [2] | degradation of N-terminal dTAG-KRAS ([3]; NIH3T3, 500 nM, indicated time) | degradation of HA-tagged FKBP* [4, 8] | degradation of FKBP* [4, 9] | targeted degradation of proteins fused to dTAG [5] | downstream p-AKT signal ([6]; NIH3T3 N-terminal dTAG-KRAS, 500 nM, indicated time) | degradation of HA-tagged FKBP12WT [7, 8] | degradation of FKBP12WT or endogenous FKBP12 [7, 9] | degradation of FKBP*-KRAS [3, 10] | inhibition of downstream signaling (pMEK, pAKT) [6, 10]
1 | CC[C@H](C(=O)N1CCCC[C@H]1C(=O)O[C@H](CCc1ccc(OC)c(OC)c1)c1cccc(OCC(=O)NCCCOCCOCCOCCCNC(=O)COc2cccc3c2C(=O)N(C2CCC(=O)NC2=O)C3=O)c1)c1cc(OC)c(OC)c(OC)c1 (some centres unmarked) [dFKBP7] | effectively degrade FKBP* in a cereblon dependent manner | diminished S-phase entry | potent degradation; also recorded: degraded | CRBN-dependent degradation of FKBP* | CRBN-dependent degradation of FKBP* | degradation was observed with nanomolar concentrations | decrease in p-AKT signal | not FKBPWT | not FKBP12WT or endogenous FKBP12 | – | –
2 | CC[C@H](C(=O)N1CCCC[C@H]1C(=O)O[C@H](CCc1ccc(OC)c(OC)c1)c1cccc(OCC(=O)NCCCCCCCCNC(=O)COc2cccc3c2C(=O)N(C2CCC(=O)NC2=O)C3=O)c1)c1cc(OC)c(OC)c(OC)c1 (some centres unmarked) [dFKBP9] | – | – | – | – | – | – | – | – | – | potent degradation | inhibition of downstream signaling
